Measured values reported in US4316839A, “Imidazodiazepine derivatives” (Hoffman-La Roche Inc., priority 1979, dated 1982).
pIC50: −log10 of the molar value.

Tests used:
[1] = tested on: central activities of flunitrazepam; assay: EEG of the dorsal hippocampus (theta rhythm) in conscious, curarised rats; antagonism of flunitrazepam; type: in vivo
Protocol: Four tests were carried out on conscious, curarised, artifically respirated rats. The bipolar-derived EEG of the dorsal hippocampus served as the measured variable. 10 minutes after the beginning of the derivation flunitrazepam was administered intravenously in a dosage of 0.1 mg/kg. The test substance was likewise administered intravenously in a dosage of 1 mg/kg to one animal 10 minutes and to three animals 30 minutes after the administration of flunitrazepam. The EEGs obtained were analysed continuously in the frequency range according to the rules of the Fourier transformation, whereby each of the computed spectra related to 1 minute.
The normal EEG from the hippocampus of conscious, curarised rats is characterised by a stable theta rhythm of 3.75-4.25 Hertz which remains unchanged at least 3 hours after the beginning of the artificial respiration. Flunitrazepam, in the given dosage, completely suppresses this theta rhythm for about 15 minutes. Thereafter, there appears a rhythm which is slowed down to 2.75-3.25 Hertz, which increases continuously and again attains the normal frequency of 4 Hertz 1 to 1.5 hours after the injection.

[2] = tested on: diazepam effect in the pentetrazole test; assay: pentetrazole test: antagonism of the diazepam effect in mice; type: in vivo; conditions: Mus musculus, po; mice; diazepam 5 mg/kg i.p. 1 hour and test compound 15 min before pentetrazole 120 mg/kg i.p.
Protocol: This property was used as a basis for the test described hereinafter which permits the determination of compounds which are capable of antagonising the central properties of 1,4-benzodiazepines which have tranquillising activity.
The antagonistic activity of the compounds tested, i.e. their ability to counteract the activity of diazepam in the pentetrazole test, is determined by counting the mice which suffer spasmodic seizures in this test.
(§1) In the following Table there are compiled the results which have been obtained with representative compounds of formula I. The ED50 value is given for each compound listed in the Table. The ED50 is the amount of the test compound in mg/kg (p.o.) which counteracts in 50% of the animals the diazepam effect in the foregoing test. Moreover, the Table contains the IC50 value (defined hereinbefore) for all test compounds listed therein as well as details concerning the acute toxicity of certain compounds (LD50 in mg/kg following single oral administration to mice).

[3] = target: specific benzodiazepine receptors in the cerebral cortex; assay: inhibition of the binding of tritiated diazepam at the specific benzodiazepine receptors in the cerebral cortex; conditions: compounds of formula I with A = group (a)
Protocol: The affinity of compounds of formula I to the central benzodiazepine receptors was determined according to the method described in Life Science 20, 2101-2110 (1977) and Science 198, 849-851 (1977). According to this method, the inhibition of the binding of tritiated diazepam at the specific benzodiazepine receptors in the cerebral cortex by test substances is ascertained. The IC50 ("50% inhibiting concentration") is that concentration of the test substance which brings about a 50 percent inhibition of the specific binding of the tritiated diazepam at the specific benzodiazepine receptors in the cerebral cortex.
as §1

[4] = acute toxicity following single oral administration to mice; conditions: mouse, in vivo
Description: as §1

Schistosoma mansoni [5] = assay: schistosomicidal activity in infected mice; type: in vivo; conditions: Mouse
Protocol: (§2) Mice and golden hamsters are infected subcutaneously with 60 cercaria of Schistosoma mansoni. Ca 42 days after the infection, they are treated orally with a single dosage of the compound to be tested. 5 Animals are used per test preparation and dosage. 10 Untreated animals are used as controls. The animals are killed and dissected 2 weeks (hamster) or 3 weeks (mice) after the treatment. Worm pairs in mesenteric veins, portal vein and liver are dissected-out, counted and the condition of the worms (living or dead) is registered. A schistosomicidal activity of a test preparation manifests itself in the appearance of dead worms in the vessels of the liver. Dead worms are never found in untreated control animals. The test is evaluated by calculating the percentage of dead worm pairs in the vessels of the liver in infected, treated animals.
(§3) The following representative compounds of formula I were tested in tests described earlier for possible detrimental effects on the schistosomicidal activity of (+)-5-(o-chlorophenyl)-1,3-dihydro-3-methyl-7-nitro-2H-1,4-benzodiazepin-2-one (compound S).

Schistosoma mansoni [6] = assay: in vitro schistosomicidal activity (motility of isolated worm pairs); type: cell-based; conditions: 25 μg/ml alone
Protocol: In order to test the in vitro activity of preparations, worm pairs of Schistosoma mansoni are isolated from mice and incubated at 37° C. in a nutrient medium. Test preparations are added in the form of a solution or as a suspension. The motility of the worms is observed under the microscope and registered during the test duration of 120 hours. A schistosomicidal activity of a test preparation manifests itself in the more or less rapid loss of motility of the worms. Control worms in the nutrient medium without the addition of test preparation maintain their normal motility during the entire test duration of 120 hours.
as §3

Schistosoma mansoni [7] = assay: schistosomicidal activity in infected golden hamsters; type: in vivo; conditions: Hamster; Compound S 75 mg/kg p.o. alone
Protocol: as §2, §3

SMILES: CN1C(=O)CN=C(c2ccccc2F)c2cc([N+](=O)[O-])ccc21 [flunitrazepam, reference compound]
- complete suppression of theta rhythm, duration ([1]; flunitrazepam 0.1 mg/kg i.v.): about 15 minutes
- frequency of slowed-down rhythm ([1]; flunitrazepam 0.1 mg/kg i.v., after suppression phase): 2.75-3.25 Hertz
- time to again attain normal frequency of 4 Hertz ([1]; flunitrazepam 0.1 mg/kg i.v., after the injection): 1 to 1.5 h

SMILES: CCOC(=O)c1ncn2c1[C@@H]1CCCN1C(=O)c1ccccc1-2 [Example 30, ethyl (S)-11,12,13,13a-tetrahydro-9-oxo-9H-imidazo[1,5-a]pyrrolo[2,1-c][1,4]benzodiazepine-1-carboxylate]
- theta rhythm frequency after test substance ([1]; 1 mg/kg i.v., 10 or 30 min after flunitrazepam): 4 Hertz
- normalisation of theta rhythm ([1]; 1 mg/kg i.v., 10 or 30 min after flunitrazepam 0.1 mg/kg i.v.): immediate, long-lasting normalisation of the described theta rhythm at 4 Hertz
- effect on theta rhythm ([1]; 1 mg/kg i.v., 10 min after flunitrazepam): immediately brought about the rhythm suppressed by flunitrazepam, whereby this showed the normal frequency from the outset
- effect on theta rhythm ([1]; 1 mg/kg i.v., 30 min after flunitrazepam): accelerated the already, but slowly, re-appearing rhythm immediately to its normal frequency of 4 Hertz
- antagonism of the central activities of flunitrazepam ([1]; rats, overall finding): antagonises the central activities of the known 1,4-benzodiazepine derivative flunitrazepam
- ED50 [2]: 9.3 mg/kg
- pIC50 [3]: 5.19
- LD50 [4]: 1250 to 2500 mg/kg

SMILES: CCOC(=O)c1ncn2c1CN(C)C(=O)c1cc(F)ccc1-2 [Example 1, ethyl 8-fluoro-5,6-dihydro-5-methyl-6-oxo-4H-imidazo[1,5-a][1,4]benzodiazepine-3-carboxylate]
- ED50 [2]: 5.8 mg/kg
- pIC50 [3]: 5.60
- Schistosomicidal activity in % (Schistosoma mansoni [5]; 750 mg/kg p.o. alone): 0%
- LD50 [4]: > 5000 mg/kg

SMILES: CC1N=C(c2ccccc2Cl)c2cc([N+](=O)[O-])ccc2NC1=O (single isomer, unassigned; (+)) [Compound S, (+)-5-(o-chlorophenyl)-1,3-dihydro-3-methyl-7-nitro-2H-1,4-benzodiazepin-2-one]
- Schistosomicidal activity in % (Schistosoma mansoni [5]; Compound S 75 mg/kg p.o. alone): 99%
- Activity (in vitro) (Schistosoma mansoni [6]): a (worm pairs motionless within 15)
- Schistosomicidal activity in % (Schistosoma mansoni [7]): 100%
